Active and inactive are the calls of the source. No cut-off for these calls is given here.
What was measured:
[1] = biological target: Histone deacetylase 2 (Homo sapiens, UniProt Q92769); assay: Inhibition of HDAC2 (unknown origin)
[2] = tested on: PC-12; assay: Induction of neurite outgrowth in rat PC-12 cells assessed as increase in neuronal protrusions at 10 uM measured after 48 hrs by light microscopic analysis; assay type: functional, cell-based
[3] = tested on: PC-12; assay: Neuroprotective activity against H2O2-induced oxidative damage in rat PC-12 cells assessed as cell survival rate at 10 uM pretreated for 4 hrs followed by 800 uM H2O2 stimulation and measured after 24 hrs by MTT assay relative to control; assay type: functional; settings: time 28 hrs, read-out: Survival
[4] = tested on: PC-12; assay: Neuroprotective activity against H2O2-induced oxidative damage in rat PC-12 cells assessed as increase in cell survival pretreated for 4 hrs followed by 800 uM H2O2 stimulation and measured after 24 hrs by MTT assay; assay type: functional, cell-based; settings: dose 1-10 µM, time 28.0 hrs
[5] = tested on: SH-SY5Y; assay: Neuroprotective activity against H2O2-induced oxidative damage in human SH-SY5Y cells assessed as increase in cell survival pretreated for 4 hrs followed by 200 uM H2O2 stimulation and measured after 24 hrs by MTT assay; assay type: functional, cell-based; settings: dose 1-10 µM, time 28.0 hrs
[6] = tested on: PC-12; assay: Neuroprotective activity against H2O2-induced oxidative damage in rat PC-12 cells assessed as inhibition of apoptosis by measuring decrease in PARP protein expression pretreated for 4 hrs followed by H2O2 stimulation and measured after 24 hrs by Western blot analysis; assay type: functional, cell-based; settings: dose 1-10 µM, time 28.0 hrs
[7] = tested on: PC-12; assay: (§1) Neuroprotective activity against H2O2-induced oxidative damage in rat PC-12 cells assessed as inhibition of apoptosis by measuring live cells at 10 uM pretreated for 4 hrs followed by H2O2 stimulation and measured after 24 hrs by Annexin V-FITC/PI staining based flow cytometry analysis (reference value: 81.7%); assay type: functional; set-up: scale not given: the % may be the effect or the level left; settings: time 28 hrs
[8] = tested on: PC-12; assay: as §1, with “late apoptotic” for “live”, “10.9%)” for “81.7%)”; assay type: functional; set-up: scale not given: the % may be the effect or the level left; settings: time 28 hrs
[9] = Antioxidant activity assessed as DPPH scavenging activity incubated for 0.5 hrs by absorbance based assay; assay type: functional
[10] = Antioxidant activity assessed as ABTS radical scavenging activity measured after 30 mins by absorbance based analysis; assay type: functional
[11] = tested on: PC-12; assay: Neuroprotective activity against H2O2-induced oxidative damage in rat PC-12 cells assessed as reduction in intracellular LDH level by measuring residual activity at 10 uM pretreated for 4 hrs followed by H2O2 stimulation and measured after 24 hrs relative to control; assay type: functional; settings: time 28 hrs
[12] = tested on: PC-12; assay: Neuroprotective activity against H2O2-induced oxidative damage in rat PC-12 cells assessed as reduction in ROS level at 10 uM pretreated for 4 hrs followed by H2O2 stimulation and measured after 24 hrs by DCFH-DA staining based fluorescence microscopic analysis; assay type: functional, cell-based; settings: time 28.0 hrs
[13] = species on record: Danio rerio; assay: Effect on anxiety-like behavior in scopolamine induced zebrafish alzheimer disease model assessed as exploratory behavior in upper part of aquarium by measuring increase in total swimming distance at 1 mg/L pretreated with scopolamine for 30 mins followed by compound addition for 3 mins by novel tank diving test; assay type: functional, organism-based
[14] = species on record: Danio rerio; assay: Cognitive improvement ability in scopolamine induced zebrafish alzheimer disease model assessed as improvement in motor activity by measuring increase in total distance of swimming at 1 mg/L pretreated with scopolamine for 30 mins followed by compound addition for 3 mins by T-maze test; assay type: functional, organism-based

Histone deacetylase 2, sequence (Q92769 whole entry): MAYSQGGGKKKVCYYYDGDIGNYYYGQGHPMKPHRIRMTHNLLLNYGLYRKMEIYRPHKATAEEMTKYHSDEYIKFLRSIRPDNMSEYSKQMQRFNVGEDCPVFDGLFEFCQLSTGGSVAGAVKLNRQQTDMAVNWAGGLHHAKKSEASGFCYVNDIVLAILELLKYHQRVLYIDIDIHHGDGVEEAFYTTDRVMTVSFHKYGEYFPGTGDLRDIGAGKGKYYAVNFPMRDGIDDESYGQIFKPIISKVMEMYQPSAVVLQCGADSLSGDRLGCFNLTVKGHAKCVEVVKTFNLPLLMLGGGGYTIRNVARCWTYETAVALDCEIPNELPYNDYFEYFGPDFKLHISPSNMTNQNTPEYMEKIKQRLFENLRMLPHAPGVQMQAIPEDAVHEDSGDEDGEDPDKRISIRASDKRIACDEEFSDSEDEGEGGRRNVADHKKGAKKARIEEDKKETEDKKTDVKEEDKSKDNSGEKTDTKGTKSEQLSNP

SMILES: O=C(NO)c1ccc(CN2CCc3c(n(CC4CC4)c4ccc(F)cc34)C2)cc1
- IC50 [1]: 19.3 µM
- Activity [2]: Active
- viability at 10 µM [3]: 89.7%
- Activity [4]: Dose-Dependent Effect
- Activity [5]: Dose-Dependent Effect
- Activity [6]: Dose-Dependent Effect
- Activity [7]: 91.5%
- Activity [8]: 3.17%
- IC50 [9]: 22.5 µM
- IC50 [10]: 10.4 µM
- Activity [11]: 35.9%
- Activity [12]: Active
- Activity [13]: Active
- Activity [14]: Active
